Values after ≈ are worked out from the molar mass of the structure shown.
Experiments:
[1] = system: Acinetobacter baumannii, ATCC 17978; test: MIC testing, broth microdilution in CAMHB; type: cell-based; conditions: 18-20 hr, lowest concentration that completely inhibits visible growth; for Compound MICs, Acinetobacter baumannii, ATCC 17978: 37° C.; for MIC: Acinetobacter baumannii, ATCC17978, 37° C., read-out: Compound MICs, Acinetobacter baumannii, ATCC 17978
Experimental: (§1) Compounds 1-71 were subsequently tested to determine MICs of the compounds relative to the following five species/strains of bacteria: Staphylococcus aureus, NRS384; Enterococcus faecalis, ATCC 51575; Salmonella typhimurium, CMCC 50115; Escherichia coli, ATCC BAA-198; and Acinetobacter baumannii, ATCC 17978. MIC testing of compounds was conducted according to the following protocol.
(§2) For each strain to be tested, made fresh streaks onto CAMHA from −80° C. glycerol stocks.
(§3) • CAMHB: Dissolved 22 g of the powder per 1 L of purified water. Mixed well. Autoclaved at 121° C. for 10 minutes. Stored at room temperature (RT) for no more than 1 week. • Saline: Dissolved 9 g of the powder per 1 L of purified water. Mixed well. Autoclaved at 121° C. for 30 minutes. Stored at room temperature (RT) for no more than 1 week.
(§4) Prepared the stock solutions of the tested compounds.
(§5) For compounds: • a) Dispensed 20 ul compound to the wells in column 1, and 20 ul DMSO to the wells in column 2 to 12; • b) Diluted the compounds by transferring 10 ul compounds from column 1 to 20 ul DMSO in column 2; mix with pipette. • c) Repeated until column 11 to get 3×serial dilutions. Column 12 was the DMSO control.
(§6) A multichannel pipette was used to deliver 1 μl of the diluted compound into each well of the corresponding daughter plate.
(§7) Scraped 4-8 single colonies from an agar plate into 5 ml saline in a 14 ml Falcon conical tube. Vortexed the tube to suspend the bacteria. Adjusted the turbidity to ˜0.2 (corresponding to 0.5 McFarland) with an Ultrospec 10 Cell density meter.
(§8) The strain suspension was diluted 200-fold in CAMHB medium and dispense into a sterile reservoir. A multichannel pipette was then used to deliver 99 μl of the diluted inocula into each well of the corresponding daughter plate.
(§9) Incubate the daughter plates at 37° C., 85% humidity for 18-20 hr.
(§10) A magnifying mirror device was used for ease of scoring the presence or absence of growth in the wells. 96-well micro-plates were photographed.

[2] = system: Enterococcus faecalis, ATCC 51575; test: MIC testing, broth microdilution in CAMHB; type: cell-based; conditions: 18-20 hr, lowest concentration that completely inhibits visible growth; for Compound MICs, Enterococcus faecalis, ATCC 51575: 37° C.; for MIC: Enterococcus faecalis, ATCC51575, 37° C., read-out: Compound MICs, Enterococcus faecalis, ATCC 51575
Experimental: as §1, §2, §3, §4, §5, §6, §7, §8, §9, §10

[3] = system: Escherichia coli, ATCC BAA-198; test: MIC testing, broth microdilution in CAMHB; type: cell-based; conditions: 18-20 hr, lowest concentration that completely inhibits visible growth; for Compound MICs, Escherichia coli, ATCC BAA-198: 37° C.; for MIC: Escherichia coli, ATCCBAA198, 37° C., read-out: Compound MICs, Escherichia coli, ATCC BAA-198
Experimental: as §1, §2, §3, §4, §5, §6, §7, §8, §9, §10

[4] = system: Salmonella typhimurium, CMCC 50115; test: MIC testing, broth microdilution in CAMHB; type: cell-based; conditions: 37° C., 18-20 hr, lowest concentration that completely inhibits visible growth; for MIC: Salmonella enterica, read-out: Compound MICs, Salmonella typhimurium, CMCC 50115
Experimental: as §1, §2, §3, §4, §5, §6, §7, §8, §9, §10

[5] = system: Staphylococcus aureus, NRS384; test: MIC testing, broth microdilution in CAMHB; type: cell-based; conditions: 18-20 hr, lowest concentration that completely inhibits visible growth; for Compound MICs, Staphylococcus aureus, NRS384: 37° C.; for MIC: Staphylococcus aureus, NRS384, 37° C., read-out: Compound MICs, Staphylococcus aureus, NRS384
Experimental: as §1, §2, §3, §4, §5, §6, §7, §8, §9, §10

P. aeruginosa PA14 = test: MIC testing against P. aeruginosa PA14, same protocol; type: cell-based, Pseudomonas aeruginosa; conditions: according to the protocol above
Experimental: For each strain to be tested, made fresh streaks onto CAMHA from −80° C. glycerol stocks. • CAMHB: Dissolved 22 g of the powder per 1 L of purified water. Mixed well. Autoclaved at 121° C. for 10 minutes. Stored at room temperature (RT) for no more than 1 week. • Saline: Dissolved 9 g of the powder per 1 L of purified water. Mixed well. Autoclaved at 121° C. for 30 minutes. Stored at room temperature (RT) for no more than 1 week. Prepared the stock solutions of the tested compounds. For compounds: • a) Dispensed 20 ul compound to the wells in column 1, and 20 ul DMSO to the wells in column 2 to 12; • b) Diluted the compounds by transferring 10 ul compounds from column 1 to 20 ul DMSO in column 2; mix with pipette. • c) Repeated until column 11 to get 3×serial dilutions. Column 12 was the DMSO control. A multichannel pipette was used to deliver 1 μl of the diluted compound into each well of the corresponding daughter plate. Scraped 4-8 single colonies from an agar plate into 5 ml saline in a 14 ml Falcon conical tube. Vortexed the tube to suspend the bacteria. Adjusted the turbidity to ˜0.2 (corresponding to 0.5 McFarland) with an Ultrospec 10 Cell density meter. The strain suspension was diluted 200-fold in CAMHB medium and dispense into a sterile reservoir. A multichannel pipette was then used to deliver 99 μl of the diluted inocula into each well of the corresponding daughter plate. Incubate the daughter plates at 37° C., 85% humidity for 18-20 hr. […] A magnifying mirror device was used for ease of scoring the presence or absence of growth in the wells. 96-well micro-plates were photographed. […]

SMILES	Compound MICs, Acinetobacter baumannii, ATCC 17978 [1] [µg/mL]	Compound MICs, Enterococcus faecalis, ATCC 51575 [2] [µg/mL]	Compound MICs, Escherichia coli, ATCC BAA-198 [3] [µg/mL]	Compound MICs, Salmonella typhimurium, CMCC 50115 [4] [µg/mL]	Compound MICs, Staphylococcus aureus, NRS384 [5] [µg/mL]	MICs against P. aeruginosa PA14 (P. aeruginosa PA14) [µg/mL]	MIC [1] [µg/mL]	MIC [2] [µg/mL]	MIC [3] [µg/mL]	MIC [4] [µg/mL]	MIC [5] [µg/mL]	MIC (P. aeruginosa PA14; Pseudomonas aeruginosa, PA14, read-out: MICs against P. aeruginosa PA14) [µg/mL]
Nc1nc(N)c2c(ccc3c2ccn3-c2ccc(F)cc2)n1 [Compound 40]	2.37	0.09	7.11	0.26	0.26	45						
Nc1nc(N)c2c(ccc3c2ccn3Cc2ccc(F)cc2)n1 [Compound 10]							0.79 (≈ 2.57 µM)	0.01 (≈ 0.0325 µM)	2.37 (≈ 7.71 µM)	0.088 (≈ 0.286 µM)	0.088 (≈ 0.286 µM)	25 (≈ 81.3 µM)
COc1ccc(-c2cc3c(ccn3Cc3ccc(F)cc3)c3c(N)nc(N)nc23)cc1 [Compound 41]	21.3	0.09	64	0.79	2.37							
Nc1nc(N)c2c(n1)c(-c1cccnc1)cc1c2ccn1Cc1ccc(F)cc1 [Compound 43]	64	0.09	64	2.37	2.37							

The next lines start with the values.

Compound MICs, Acinetobacter baumannii, ATCC 17978 [1] [µg/mL]	Compound MICs, Enterococcus faecalis, ATCC 51575 [2] [µg/mL]	Compound MICs, Escherichia coli, ATCC BAA-198 [3] [µg/mL]	Compound MICs, Salmonella typhimurium, CMCC 50115 [4] [µg/mL]	Compound MICs, Staphylococcus aureus, NRS384 [5] [µg/mL]	MICs against P. aeruginosa PA14 (P. aeruginosa PA14) [µg/mL]	MIC [1] [µg/mL]	MIC [2] [µg/mL]	MIC [3] [µg/mL]	MIC [4] [µg/mL]	MIC [5] [µg/mL]	MIC (P. aeruginosa PA14; Pseudomonas aeruginosa, PA14, read-out: MICs against P. aeruginosa PA14) [µg/mL]	SMILES
0.79	≤0.001	7.11	0.003	0.09	12.5							Nc1nc(N)c2c(ccc3c2ccn3Cc2cccc(F)n2)n1 [Compound 48]
2.37	0.01	7.11	0.003	0.26	6.3							Nc1nc(N)c2c(ccc3c2ccn3Cc2ccc(F)nc2)n1 [Compound 45]
						21.3 (≈ 66.5 µM)	0.09 (≈ 0.281 µM)	21.3 (≈ 66.5 µM)	0.26 (≈ 0.812 µM)	0.26 (≈ 0.812 µM)		COc1ccnc(Cn2ccc3c4c(N)nc(N)nc4ccc32)c1 [Compound 63]

Reference: patent US20230295164A1, “COMPOUNDS HAVING ANTIBACTERIAL ACTIVITY” (The Trustees of Princeton University, priority 2020, published 2023)
